The target in this test is T1, Seed linoleate 13S-lipoxygenase-1 (Glycine max, UniProt P08170).
T1 sequence (P08170 whole entry): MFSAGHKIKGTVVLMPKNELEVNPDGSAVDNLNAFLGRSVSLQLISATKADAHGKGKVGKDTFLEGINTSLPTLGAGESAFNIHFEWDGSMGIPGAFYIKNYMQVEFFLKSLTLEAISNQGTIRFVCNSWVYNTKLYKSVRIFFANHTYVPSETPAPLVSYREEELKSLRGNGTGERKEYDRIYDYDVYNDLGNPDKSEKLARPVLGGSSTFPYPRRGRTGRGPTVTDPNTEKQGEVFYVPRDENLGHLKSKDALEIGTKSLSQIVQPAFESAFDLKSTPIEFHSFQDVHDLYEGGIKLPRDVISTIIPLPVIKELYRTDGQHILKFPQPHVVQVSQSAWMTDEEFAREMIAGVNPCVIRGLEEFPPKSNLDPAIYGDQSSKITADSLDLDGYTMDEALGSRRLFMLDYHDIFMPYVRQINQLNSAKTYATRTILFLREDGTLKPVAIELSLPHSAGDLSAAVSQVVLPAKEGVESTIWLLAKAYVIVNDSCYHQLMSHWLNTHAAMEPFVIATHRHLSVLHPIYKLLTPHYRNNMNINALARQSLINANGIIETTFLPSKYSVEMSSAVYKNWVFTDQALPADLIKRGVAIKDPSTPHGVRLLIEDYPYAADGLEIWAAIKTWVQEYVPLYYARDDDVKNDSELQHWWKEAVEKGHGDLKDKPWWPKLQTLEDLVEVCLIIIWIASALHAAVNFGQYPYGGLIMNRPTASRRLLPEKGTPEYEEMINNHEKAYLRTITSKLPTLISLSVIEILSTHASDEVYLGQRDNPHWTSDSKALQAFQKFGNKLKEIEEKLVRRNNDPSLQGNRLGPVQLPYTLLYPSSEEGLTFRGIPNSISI
The experiment in a line: Inhibition of soybean lipoxygenase-1 assessed as inhibition of conversion of linoleic acid into hydroperoxy […] acid preincubated for 10 mins before substrate addition measured over 20 mins by spectrophotometric assay.

As a reminder, the IC50 is the midpoint of a concentration-inhibition curve. Take `C[C@H]1CCCC(=O)CCC/C=C/c2cc(O)cc(O)c2C(=O)O1` [ZEARALENONE]: the IC50 is 51 µM.

Source of the values: ChEMBL document CHEMBL2412991, “Catalytic asymmetric total synthesis of (S)-(-)-zearalenone, a novel lipoxygenase inhibitor” (Bioorg Med Chem, 2013).
